Test results: paper PMC11306024, “Novel metabolite madeirone and neomarinone extracted from Streptomyces aculeoletus as marine antibiofilm and antifouling agents” (Frontiers in Chemistry, 2024)

Columns and labels:
P. inhibens [1] = assay: Antibacterial activity (growth inhibition, OD600); type: cell-based, Phaeobacter inhibens DSM 17395; conditions: 48 h
Protocol: (§1) To assess antimicrofouling activity, we selected five marine bacterial species as models: Marinobacter hydrocarbonoclasticus DSM 8798 (ATCC 49840), C. marina DSM 4741, Phaeobacter inhibens DSM 17,395, Pseusooceanicola batsensis DSM 15,984, and Micrococcus luteus DSM 20030 (ATCC 4698) ([Michael et al., 2016]). These strains, sourced from DSMZ (Leibniz Institute DSMZ—German Collection of Microorganisms and Cell Cultures), were cultured in liquid marine broth (Carl Roth GmbH, Karlsruhe, Germany) with agitation at 180 rpm or on agar-supplemented marine broth. Incubation temperatures were set at 28°C for M. hydrocarbonoclasticus and Cobetia marina, 30°C for P. inhibens and P. batsensis, while M. luteus was maintained at 37°C in Brain Heart Infusion broth (BHI, Becton Dickinson, GmbH, Heidelberg, Germany) under similar agitation conditions.
(§2) The antibacterial efficacy of compounds (1) and (2) was assessed in 96-well polystyrene flat-bottom microplates (Nunclon Delta Surface, Thermo Scientific, Roskilde, Denmark) following established procedures ([Bauermeister et al., 2019]). In the initial screening, bacterial overnight cultures were diluted to an optical density (OD600nm) of 0.2 and incubated statically at appropriate temperatures. The cultures were treated with the following final concentrations per well: 31.25, 15.60, 7.81, 3.91, 1.95, and 0.98 μg/mL (2-fold serial dilutions) of the compounds, solubilized in DMSO, or left untreated. After 24 h (M. hydrocarbonoclasticus, C. marina) or 48 h (P. batsensis, P. inhibens, M. luteus) incubation, optical density at 600 nm (OD600) was measured using a Molecular Devices Spectra Max 190. Growth inhibition percentages were calculated relatively to untreated bacterial species, using DMSO as a negative control. CuSO4 (0.16 μg/mL), a recognized antifouling agent, was used as positive control. All assays were conducted in triplicate, and the results represent the mean and standard error of the mean (SEM). Statistical analysis was carried out using GraphPad Prism 8.0.2 (San Diego, CA, United States), employing one-way ANOVA followed by Dunnett’s multiple comparisons test against the negative control.

M. hydrocarbonoclasticus = assay: Antibacterial activity (growth inhibition, OD600); type: cell-based, Marinobacter hydrocarbonoclasticus DSM 8798; conditions: 24 h
Protocol: as §1, §2

C. marina = assay: Antibacterial activity (growth inhibition, OD600); type: cell-based, Cobetia marina DSM 4741; conditions: 24 h; for inhibition at 15.6 µg/mL: 15.60 µg/mL
Protocol: as §1, §2

P. inhibens [2] = assay: Antibiofilm activity (inhibition of biofilm formation); type: cell-based, Phaeobacter inhibens DSM 17395; conditions: for Biofilm inhibition, up to (highest over tested concentrations) P. inhibens: 0.98-31.25 µg/mL tested; for inhibition at 15.6 µg/mL: 15.60 µg/mL
Protocol: as §1
The antibiofilm potential of compounds (1) and (2) against the five marine bacterial species was investigated in 96-well polystyrene flat-bottom microplates (Nunclon Delta Surface, Thermo Scientific, Roskilde, Denmark), as described previously ([Bauermeister et al., 2019]; [Pereira et al., 2020]). In the initial screening, bacterial overnight cultures were diluted to an OD600 of 0.2 and incubated statically at appropriate temperatures. The cultures were tested at 31.25, 15.60, 7.81, 3.91, 1.95, 0.98 μg/mL concentrations (2-fold serial dilutions) of compounds (1) and (2), solubilized in DMSO, or left untreated. After 24 h (M. hydrocarbonoclasticus, C. marina) or 48 h (P. batsensis, P. inhibens, M. luteus) incubation, OD600 was measured. The planktonic cells and media were discarded, and the wells were washed twice with deionized water. Biofilms were fixed, stained, and quantified by measuring the OD600 after solubilization with acetic acid. Biofilm inhibition percentages were calculated relative to untreated bacterial species, using DMSO as a negative control and CuSO4 (0.16 μg/mL), as a positive control. All assays were performed in triplicate, and the results represent the mean and standard error of the mean (SEM). Statistical analysis was conducted using GraphPad Prism 8.0.2, employing one-way ANOVA followed by Dunnett’s multiple comparisons test against the negative control.

[3] = system: Phaeodactylum tricornutum; assay: Algal growth inhibition test (OECD 201, ISO-10253); type: cell-based
Protocol: The in vivo evaluation of compounds (1) and (2) for acute toxicity was performed towards marine bacterium Aliivibrio fischeri, and planktonic crustacean Daphnia magna. The chronic ecotoxicity tests were evaluated using algae Pseudokirchneriella subcapitata and Phaeodactylum tricornutum.
Freshwater and marine algal growth inhibition was assessed using P. subcapitata and P. tricornutum according to OECD Guideline 201 procedures (“Alga, Growth Inhibition Test”), ISO-8692 (“Water quality–Fresh water algal growth inhibition test with unicellular green algae”) and ISO-10253. Briefly, the algae cells were de-immobilized from algal beads using Matrix dissolving medium (Microbiotests), according to the manufacturer’s instructions, and grown in flasks containing algal culturing medium which was prepared following the OECD Guideline 201 and ISO-8692. Flasks with algae were kept for 7 days under light with orbital agitation. When the algae culture had sufficient cells, as verified by the optical density at 670 nm, these were tested at an initial cell density of 1 × 10^6 cells/mL in algal culturing medium. Madeirone (1) and neomarinone (2) were dissolved in DMSO and tested at the concentrations of 100, 50, 25, 12.5, 6.25, 3.13, and 1.56 μg/mL. The algae were cultured in microplates in triplicate and were kept for 4 days under light with orbital agitation. […] Each experiment was performed in triplicate and the results of two independent experiments with <10% SD are presented. Growth inhibition calculations were performed using cell numbers (biomass), as determined by a calibration line. Potassium dichromate (K2Cr2O7) was used as a positive control.

SMILES	Growth inhibition (%) P. inhibens (P. inhibens [1]; 0.98 µg/mL)	Growth inhibition (%) P. inhibens (P. inhibens [1]; 1.95 µg/mL)	Growth inhibition (%) P. inhibens (P. inhibens [1]; 3.91 µg/mL)	Growth inhibition (%) P. inhibens (P. inhibens [1]; 7.81 µg/mL)	Growth inhibition (%) P. inhibens (P. inhibens [1]; 15.60 µg/mL)	Growth inhibition (%) M. hydrocarbonoclasticus (M. hydrocarbonoclasticus; 0.98 µg/mL)	Growth inhibition (%) M. hydrocarbonoclasticus (M. hydrocarbonoclasticus; 1.95 µg/mL)	Growth inhibition (%) M. hydrocarbonoclasticus (M. hydrocarbonoclasticus; 3.91 µg/mL)	Growth inhibition (%) M. hydrocarbonoclasticus (M. hydrocarbonoclasticus; 7.81 µg/mL)	Growth inhibition (%) M. hydrocarbonoclasticus (M. hydrocarbonoclasticus; 15.60 µg/mL)	inhibition at 7.81 µg/mL (C. marina; Cobetia marina)	inhibition at 15.6 µg/mL (C. marina; Cobetia marina)	inhibition at 31.25 µg/mL (C. marina; Cobetia marina)	Biofilm inhibition (%) P. inhibens (P. inhibens [2]; 0.98 µg/mL, 48 h)	Biofilm inhibition (%) P. inhibens (P. inhibens [2]; 1.95 µg/mL, 48 h)	Biofilm inhibition, up to (highest over tested concentrations) P. inhibens (P. inhibens [2])	inhibition at 7.81 µg/mL (P. inhibens [2]; Phaeobacter inhibens, 48 h)	inhibition at 15.6 µg/mL (P. inhibens [2]; Phaeobacter inhibens, 48 h)	inhibition at 31.25 µg/mL (P. inhibens [2]; Phaeobacter inhibens, 48 h)	Inhibition (%) P. tricornutum (growth) ([3]; 25 µg/mL)	also measured
CC1=CCC[C@@H](C)[C@]1(C)CC[C@@]1(C)c2c(O)cc3c(c2O[C@@H]1C)C(=O)C(C)=C(O)C3=O [compound 2, neomarinone]	N.I.	N.I.	N.I.	N.I.	N.I.	N.I.	N.I.	N.I.	N.I.	N.I.	9.2 ± 2.1%	7.2 ± 2.9%	1.1 ± 2%	N.I.	N.I.	up to 41%	11.6 ± 1.8%	30 ± 0.6%	41.3 ± 0.9%	38.5%	Growth inhibition (%) P. inhibens (P. inhibens [1]; 31.25 µg/mL): N.I.; inhibition at 31.25 µg/mL (M. hydrocarbonoclasticus; Marinobacter nauticus, 31.25 µg/mL): 4.2 ± 0.8%; inhibition at 0.98 µg/mL (C. marina; Cobetia marina, 0.98 µg/mL): 10.7 ± 2.2%; inhibition at 1.95 µg/mL (C. marina; Cobetia marina, 1.95 µg/mL): 10.8 ± 3.1%; inhibition at 3.91 µg/mL (C. marina; Cobetia marina, 3.91 µg/mL): 6.5 ± 1.2%; Biofilm inhibition (%) P. inhibens (P. inhibens [2]; 3.91 µg/mL, 48 h): N.I.; Inhibition (%) P. tricornutum (growth) ([3]; 12.5 µg/mL): 26.5%; Inhibition (%) P. tricornutum (growth) ([3]; 50 µg/mL): 40.8%; Inhibition (%) P. tricornutum (growth) ([3]; 100 µg/mL): 77.7%
CC1=CCC[C@@H](C)[C@]1(C)CC[C@@]1(C)c2c(O)cc3c(c2O[C@@H]1C)C(=O)C=C(CO)C3=O (relative stereo) [compound 1, madeirone]	N.I.	N.I.	N.I.	N.I.	N.I.	N.I.	N.I.	N.I.	N.I.	N.I.	10 ± 2.1%	7.7 ± 4%	12.7 ± 2.7%	N.I.	N.I.	up to 66%	33.9 ± 1.3%	53 ± 1%	66.7 ± 0.3%	45.7%	inhibition at 31.25 µg/mL (P. inhibens [1]; Phaeobacter inhibens, 31.25 µg/mL): 24.3 ± 0.5%; Growth inhibition (%) M. hydrocarbonoclasticus (M. hydrocarbonoclasticus; 31.25 µg/mL): N.I.; Growth inhibition (%) C. marina (C. marina; 0.98 µg/mL): N.I.; Growth inhibition (%) C. marina (C. marina; 1.95 µg/mL): N.I.; Growth inhibition (%) C. marina (C. marina; 3.91 µg/mL): N.I.; inhibition at 3.91 µg/mL (P. inhibens [2]; Phaeobacter inhibens, 3.91 µg/mL, 48 h): 10.2 ± 3.7%; Inhibition (%) P. tricornutum (growth) ([3]; 50 µg/mL): 58.0%; Inhibition (%) P. tricornutum (growth) ([3]; 100 µg/mL): 86.9%
